Tested on: patients with rheumatoid arthritis
Assay: Phase II clinical study in rheumatoid arthritis: effectiveness (symptoms, physical examination, comprehensive evaluation)
Assay type: in vivo, human
Parameters: ESR Reduced to norm., % of cases / CRP Reduced to Norm., % of cases / RF Reduced to norm., % of cases: concentration or dose not given beside the values
Protocol: It was a multiple-centered, randomized, parallel, positive controlled Phrase II clinical study.
All clinical studies except the above mentioned 120 cases were conducted in a single-blind condition.
1) Age 18˜65, male or female who agreed to the investigational treatment for 12 weeks to 6 months. History of rheumatoid arthritis was within 3 years.
2) Documented Rheumatoid Arthritis based on a diagnostic criteria of 1987 Revised ARA Criteria for the Classification of Rheumatoid Arthritis
3) Diagnosis of a typical active stage of RA: A patient is said to be on an active stage of RA if he or she has satisfied at least 4 of the following 5 items.
2) Patient who quitted the treatment for the ineffectiveness 7 days after the start of administration was included in the efficacy analysis. Patient who quitted the treatment for the side effects was not included in the efficacy analysis but the safety analyses.
1) The placebo run-in period: Seven days before administration, the selected patients stopped using NSAIDs and took a placebo instead.
4) For the double-blinded study, patients in both groups would be given capsules and tablets in same shapes, odors and amount. Placebo of capsule or tablet were included. Neither doctors nor patients can tell the group of treatment from the other.
5) No analgesics, anti-inflammation drugs, immune regulatory agents or muscle relaxants were allowed during the period of study. Acetaminophen could be used when necessary. If a physical therapy was started before enrollment, it was allowed to be continued, yet, it should be taken all the way during the period of clinical study.
1) Pain at rest: patients were asked to scale the degree of pain with a ruler [drawing 1]
2) Morning stiffness: Patients were requested to make notes on duration of their morning joint stiffness, a time span from its appearance to recovery in minutes every morning. The doctors should evaluate their record sheets by questioning them. For example “Do you fell stiff in any of your joints? (today, these 2 days)” When get a “yes” in answer, then “when did you get up today?” and “when does the stiffness be gone?”
3) Swelling of joints: Take count of the index of joint swelling by summing up the degree number of each joint.
0=normal; 1=swelling soft tissues (synovium) without hydrarthrus; 2=swelling soft tissues (synovium) with hydrarthrus.
4) Tenderness of joints: Take count of the index of joint tenderness by summing up the degree number of each joint:
5) Grip strength: Fold the arm belt of a sphygmomanometer twice and seal it in a small cloth bag suitable for a hand to hold. Aerates the belt in pressure of 20 mm Hg. Patients were asked to grip the bag with their not braced left and right hand, the grip strength is the average pressures in mm Hg for three times.
6) Time consumed for a 15 meters' walk (Seconds): Time started from a calm standing to the final of 15 meters. The average of three times.
7) General joint function (criteria of ARA):
8) Self-scoring and physician's grading on disease conditions: Both patients and doctors were required to submit their score sheet every time on follow-up survey. The scoring was made upon following criteria:
9) Patient's general condition: condition on the physical strength, sleep and appetite.
No effect: less than 30% improvement in symptoms and physical signs.
Improved: About 50% improvement in symptoms and physical signs (including general conditions in physical strength, sleep and appetite).

Structure (SMILES): CN(Cc1cnc2nc(N)nc(N)c2n1)c1ccc(C(=O)N[C@@H](CCC(=O)O)C(=O)O)cc1 [MTX, Methotrexate]
- MR Disappeared, cases (double blinded, 12 weeks): 15
- NSJ 50% reduced, % of cases (double blinded, 12 weeks): 56.7%
- NSJ 50% reduced, cases (double blinded, 12 weeks): 34
- NSJ Disappeared, % of cases (double blinded, 12 weeks): 26.7%
- NSJ Disappeared, cases (double blinded, 12 weeks): 16
- RF 2 dilutions lower, % of cases (double blinded, 12 weeks): 36.7%
- RF 2 dilutions lower, cases (double blinded, 12 weeks): 22
- RF Reduced to norm., cases (double blinded, 12 weeks): 0
- AGS 50% increased, % of cases (overall group, 4 weeks): 7.5%
- AGS 50% increased, cases (overall group, 4 weeks): 19
- CRP 50% reduced, % of cases (overall group, 4 weeks): 13.4%
- CRP 50% reduced, cases (overall group, 4 weeks): 19
- CRP Reduced to Norm., % of cases (overall group, 4 weeks): 4.9%
- CRP Reduced to Norm., cases (overall group, 4 weeks): 7
- ESR 50% reduced, % of cases (overall group, 4 weeks): 41.6%
- ESR 50% reduced, cases (overall group, 4 weeks): 59
- ESR Reduced to norm., % of cases (overall group, 4 weeks): 15.5%
- ESR Reduced to norm., cases (overall group, 4 weeks): 22
- ITJ 50% reduced, % of cases (overall group, 4 weeks): 19.0%
- ITJ 50% reduced, cases (overall group, 4 weeks): 27
- ITJ Disappeared, % of cases (overall group, 4 weeks): 2.8%
- ITJ Disappeared, cases (overall group, 4 weeks): 4
- MR 50% reduced, % of cases (overall group, 4 weeks): 45.8%
- MR 50% reduced, cases (overall group, 4 weeks): 65
- MR Disappeared, % of cases (overall group, 4 weeks): 9.8%
- MR Disappeared, cases (overall group, 4 weeks): 14
- NSJ 50% reduced, % of cases (overall group, 4 weeks): 48.6%
- NSJ 50% reduced, cases (overall group, 4 weeks): 69
- NSJ Disappeared, % of cases (overall group, 4 weeks): 10.6%
- NSJ Disappeared, cases (overall group, 4 weeks): 15
- RF 2 dilutions lower, % of cases (overall group, 4 weeks): 49.3%
- RF 2 dilutions lower, cases (overall group, 4 weeks): 70
- RF Reduced to norm., % of cases (overall group, 4 weeks): 4.9%
- RF Reduced to norm., cases (overall group, 4 weeks): 7
- AGS 50% increased, % of cases (overall group, 8 weeks): 16.7%
- AGS 50% increased, cases (overall group, 8 weeks): 23
- CRP 50% reduced, % of cases (overall group, 8 weeks): 17.6%
- CRP 50% reduced, cases (overall group, 8 weeks): 25
- CRP Reduced to Norm., % of cases (overall group, 8 weeks): 12.7%
- CRP Reduced to Norm., cases (overall group, 8 weeks): 18
- ESR 50% reduced, cases (overall group, 8 weeks): 80
- ESR Reduced to norm., % of cases (overall group, 8 weeks): 18.3%
- ESR Reduced to norm., cases (overall group, 8 weeks): 26
- ITJ 50% reduced, % of cases (overall group, 8 weeks): 34.5%
- ITJ 50% reduced, cases (overall group, 8 weeks): 49
- ITJ Disappeared, % of cases (overall group, 8 weeks): 3.5%
- ITJ Disappeared, cases (overall group, 8 weeks): 5
- MR 50% reduced, % of cases (overall group, 8 weeks): 52.1%
- MR 50% reduced, cases (overall group, 8 weeks): 74
- MR Disappeared, % of cases (overall group, 8 weeks): 19.7%
- MR Disappeared, cases (overall group, 8 weeks): 28
- NSJ 50% reduced, % of cases (overall group, 8 weeks): 51.4%
- NSJ 50% reduced, cases (overall group, 8 weeks): 73
- NSJ Disappeared, % of cases (overall group, 8 weeks): 16.9%
- NSJ Disappeared, cases (overall group, 8 weeks): 24
- RF 2 dilutions lower, % of cases (overall group, 8 weeks): 59.9%
- RF 2 dilutions lower, cases (overall group, 8 weeks): 85
- RF Reduced to norm., % of cases (overall group, 8 weeks): 9.2%
- RF Reduced to norm., cases (overall group, 8 weeks): 13
- AGS 50% increased, % of cases (overall group, 12 weeks): 29.5%
- AGS 50% increased, cases (overall group, 12 weeks): 42
- CRP 50% reduced, % of cases (overall group, 12 weeks): 23.2%
- CRP 50% reduced, cases (overall group, 12 weeks): 33
- CRP Reduced to Norm., % of cases (overall group, 12 weeks): 17.6%
- CRP Reduced to Norm., cases (overall group, 12 weeks): 25
- ESR 50% reduced, cases (overall group, 12 weeks): 76
- ESR Reduced to norm., % of cases (overall group, 12 weeks): 21.8%
- ESR Reduced to norm., cases (overall group, 12 weeks): 31
- ITJ 50% reduced, % of cases (overall group, 12 weeks): 50.7%
- ITJ 50% reduced, cases (overall group, 12 weeks): 72
- ITJ Disappeared, % of cases (overall group, 12 weeks): 6.3%
- ITJ Disappeared, cases (overall group, 12 weeks): 9
- MR 50% reduced, % of cases (overall group, 12 weeks): 67.6%
- MR 50% reduced, cases (overall group, 12 weeks): 96
- MR Disappeared, % of cases (overall group, 12 weeks): 11.3%
- MR Disappeared, cases (overall group, 12 weeks): 34
- NSJ 50% reduced, % of cases (overall group, 12 weeks): 61.3%
- NSJ 50% reduced, cases (overall group, 12 weeks): 87
- NSJ Disappeared, % of cases (overall group, 12 weeks): 19.0%
- NSJ Disappeared, cases (overall group, 12 weeks): 27
- RF 2 dilutions lower, % of cases (overall group, 12 weeks): 59.9%
- RF 2 dilutions lower, cases (overall group, 12 weeks): 85
- RF Reduced to norm., % of cases (overall group, 12 weeks): 11.3%
- RF Reduced to norm., cases (overall group, 12 weeks): 16
- AGS 50% increased, % of cases (overall group, 24 weeks): 16.7%
- AGS 50% increased, cases (overall group, 24 weeks): 10
- CRP 50% reduced, % of cases (overall group, 24 weeks): 18.3%
- CRP 50% reduced, cases (overall group, 24 weeks): 11
- CRP Reduced to Norm., % of cases (overall group, 24 weeks): 40.0%
- CRP Reduced to Norm., cases (overall group, 24 weeks): 24
- ESR 50% reduced, % of cases (overall group, 24 weeks): 23.3%
- ESR 50% reduced, cases (overall group, 24 weeks): 14
- ESR Reduced to norm., % of cases (overall group, 24 weeks): 43.3%
- ESR Reduced to norm., cases (overall group, 24 weeks): 26
- ITJ 50% reduced, % of cases (overall group, 24 weeks): 58.3%
- ITJ 50% reduced, cases (overall group, 24 weeks): 35
- ITJ Disappeared, % of cases (overall group, 24 weeks): 10.0%
- ITJ Disappeared, cases (overall group, 24 weeks): 6
- MR 50% reduced, % of cases (overall group, 24 weeks): 50.0%
- MR 50% reduced, cases (overall group, 24 weeks): 30
- MR Disappeared, % of cases (overall group, 24 weeks): 31.7%
- MR Disappeared, cases (overall group, 24 weeks): 19
- NSJ 50% reduced, % of cases (overall group, 24 weeks): 46.7%
- NSJ 50% reduced, cases (overall group, 24 weeks): 28
- NSJ Disappeared, % of cases (overall group, 24 weeks): 26.7%
- NSJ Disappeared, cases (overall group, 24 weeks): 16
- RF 2 dilutions lower, % of cases (overall group, 24 weeks): 38.3%
- RF 2 dilutions lower, cases (overall group, 24 weeks): 23
- RF Reduced to norm., % of cases (overall group, 24 weeks): 10.0%
- RF Reduced to norm., cases (overall group, 24 weeks): 6
- Changes in RA perimeters: GS-L (overall groups, 4 weeks, mean): 12.56
- Changes in RA perimeters: GS-R (overall groups, 4 weeks, mean): 11.60
- Changes in RA perimeters: ISJ (overall groups, 4 weeks, mean): 3.73
- Changes in RA perimeters: ITJ (overall groups, 4 weeks, mean): 6.04
- Changes in RA perimeters: MR (overall groups, 4 weeks, mean): 35.76
- Changes in RA perimeters: NSJ (overall groups, 4 weeks, mean): 2.10
- Changes in RA perimeters: NTJ (overall groups, 4 weeks, mean): 2.61
- Changes in RA perimeters: PR (overall groups, 4 weeks, mean): 1.05
- Changes in RA perimeters: GS-L (overall groups, 8 weeks, mean): 16.66
- Changes in RA perimeters: GS-R (overall groups, 8 weeks, mean): 19.36
- Changes in RA perimeters: ITJ (overall groups, 8 weeks, mean): 12.66
- Changes in RA perimeters: MR (overall groups, 8 weeks, mean): 54.20
- Changes in RA perimeters: NSJ (overall groups, 8 weeks, mean): 4.43
- Changes in RA perimeters: NTJ (overall groups, 8 weeks, mean): 5.38
- Changes in RA perimeters: PR (overall groups, 8 weeks, mean): 1.94
- Changes in RA perimeters: TSJ (overall groups, 8 weeks, mean): 6.59
- Changes in RA perimeters: GS-L (overall groups, 12 weeks, mean): 23.06
- Changes in RA perimeters: GS-R (overall groups, 12 weeks, mean): 28.10
- Changes in RA perimeters: ISJ (overall groups, 12 weeks, mean): 10.25
- Changes in RA perimeters: ITJ (overall groups, 12 weeks, mean): 18.77
- Changes in RA perimeters: MR (overall groups, 12 weeks, mean): 78.52
- Changes in RA perimeters: NSJ (overall groups, 12 weeks, mean): 6.77
- Changes in RA perimeters: NTJ (overall groups, 12 weeks, mean): 8.78
- Changes in RA perimeters: GS-L (overall groups, 24 weeks, mean): 31.83
- Changes in RA perimeters: GS-R (overall groups, 24 weeks, mean): 30.90
- Changes in RA perimeters: ISJ (overall groups, 24 weeks, mean): 6.88
- Changes in RA perimeters: ITJ (overall groups, 24 weeks, mean): 13.94
- Changes in RA perimeters: MR (overall groups, 24 weeks, mean): 60.70
- Changes in RA perimeters: NSJ (overall groups, 24 weeks, mean): 5.39
- Changes in RA perimeters: NTJ (overall groups, 24 weeks, mean): 9.05
- Changes in RA perimeters: PR (overall groups, 24 weeks, mean): 2.62

From US20030232102A1, “Total glycosides of paeony, method to prepare the same and uses thereof” (priority 2001, published 2003)
